# Results published in ChEMBL document CHEMBL5608113, “Targeting of CAF-induced therapy resistance in CRC organoid-stroma co-cultures” (2024).
# Key:
# Assay type in all cases: functional, Homo sapiens
# Settings in all cases: Homo sapiens, read-out: Cell Viability; for viability at 10 µM: Concentration 10 uM; for viability at 1 µM: Concentration 1 uM
# Colon cancer organoid [1] = experiment: Targeting of F14 CAF-induced therapy resistance in O23 CRC organoid-stroma co-culture. Cell viability is reported with Gefitinib.
# Colon cancer organoid [2] = experiment: Targeting of F14 CAF-induced therapy resistance in O23 CRC organoid-stroma co-culture. Cell viability is reported without Gefitinib.
# Colon cancer organoid [3] = experiment: Targeting of F14 CAF-induced therapy resistance in O14 CRC organoid-stroma co-culture. Cell viability is reported without Gefitinib.
# Colon cancer organoid [4] = experiment: Targeting of F14 CAF-induced therapy resistance in O23 CRC organoid-stroma co-culture. Cell viability is reported with SN-38.
# Colon cancer organoid [5] = experiment: Targeting of F14 CAF-induced therapy resistance in O14 CRC organoid-stroma co-culture. Cell viability is reported with Gefitinib.
Compound,viability at 10 µM (Colon cancer organoid [1]) [%],viability at 10 µM (Colon cancer organoid [2]) [%],viability at 10 µM (Colon cancer organoid [3]) [%],viability at 10 µM (Colon cancer organoid [4]) [%],viability at 10 µM (Colon cancer organoid [5]) [%],viability at 1 µM (Colon cancer organoid [1]) [%],viability at 1 µM (Colon cancer organoid [2]) [%],viability at 1 µM (Colon cancer organoid [3]) [%],viability at 1 µM (Colon cancer organoid [4]) [%],viability at 1 µM (Colon cancer organoid [5]) [%]
C[C@@]1(Cc2ccc(C#N)cc2)C(=O)N(c2cc(Cl)cc(Cl)c2)c2ncc(C(=O)NC3(c4nc(C5CCC5)no4)CC3)n21 [BI 9446],43,80.2,80.5,66.3,23,–,–,–,–,–
CC(=O)N1CCC(c2ccc(C(=O)NC(=N)N)cc2C(F)(F)F)CC1 [BI 9627],53.2,109,102,106,42.9,–,–,–,–,–
CCC(=O)N[C@H]1CC[C@@H](C(=O)N(C)c2ccc(-c3nc4ccccc4o3)cc2)C1 [BI 99179],82,168,48.5,124,44.8,–,–,–,–,–
CCC(=O)N[C@@H]1CC[C@H](C(=O)N(C)c2ccc(-c3nc4ccccc4o3)cc2)C1 [BI 99990],69.7,154,150,100,37.6,–,–,–,–,–
CS(=O)(=O)c1cc(C2(NC(=O)c3cncc4c3cnn4-c3ccc(F)cc3)CC2)ccn1 [BI 639667],–,–,–,–,–,107,135,126,94.7,39
CCS(=O)(=O)c1cc2cc(C[C@](O)(CC(C)(C)c3ccc(F)cc3C(N)=O)C(F)(F)F)[nH]c2cn1 [BI 653048],68.4,161,100,110,42.7,–,–,–,–,–
CN(C)C(=O)Cn1cc(-c2nc([C@@](C)(c3ccc(-c4cnc(N)nc4)cc3)C3CC3)no2)cn1 [BI 665915],–,–,–,–,–,79.9,181,102,85.2,56.8
CC[C@H](CC(=O)O)n1c(=O)c2ncccc2n(Cc2cn(C)c3cc(C)cc(C)c23)c1=O [BI-1942],60.8,113,93.3,65,37.9,–,–,–,–,–
CN(C)C(=O)c1sc2nc(N3CCC(S(C)(=O)=O)CC3)cc(C(F)(F)F)c2c1N [BI-5026],50,83.8,108,79.7,51,–,–,–,–,–
CCC(F)(F)c1cc(N2CCC(S(C)(=O)=O)CC2)nc2sc(C(N)=O)c(N)c12 [BI-605906],53.3,102,125,62.6,50.7,–,–,–,–,–
O=c1nc(-c2ccccn2)sc2ccccc12 [BTZO-1],83.1,186,117,120,69.4,–,–,–,–,–
O=C1NC(c2ccccn2)Sc2ccccc21 (stereo not given) [BTZO-4],56.6,142,112,100,48.9,–,–,–,–,–
C=CC(=O)Nc1ccc2[nH]c(=O)n(C3CCN(Cc4ccc(-c5nc6cc[nH]c(=O)c6cc5-c5ccccc5)cc4)CC3)c2c1 [Borussertib],7.88,9.17,28.5,10.6,14.3,–,–,–,–,–
CN([C@@H]1CCc2c(CC(=O)O)c3cc(S(C)(=O)=O)ccc3n2C1)S(=O)(=O)c1ccc(F)cc1 [CRTH2-negative-control],24.9,76.2,98.2,54.8,37,–,–,–,–,–
CNC(=O)c1ccc(Nc2ncc(C(F)(F)F)c(NCc3nccnc3N(C)S(C)(=O)=O)n2)cc1 [DEFACTINIB],40.5,78.6,76.8,39.9,17.9,–,–,–,–,–
